One series relates to host macrophage (BMDM). Put plainly: Host macrophage toxicity, MTT survival assay. The series is classed as cell-based. For orientation: Formazan colour is commonly taken as a measure of viable cells.
Series [1] has as its system Leishmania infantum (MHOM/MA/67/ITMAP-263) wild-type strain. The series is described as follows: Anti-leishmanial activity on promastigotes, L. infantum WT. The format is cell-based. The note with it: Leishmania infantum, 72 h, 25 °C, unit nM, read-out: IC50 Ldi WT. The protocol: (§1) The L. infantum (MHOM/MA/67/ITMAP-263) wild-type strain (WT), as well as the resistant mutants Sb2000.1, AmB1000.1, and MF200.5 [29, 30, 31, 32, 33], which are respectively resistant to antimony (Sb^III), amphotericin B (AmB), and miltefosine (MF), were grown in M199 medium at 25 °C supplemented with 10% fetal bovine serum, 5 μg/mL of haemin at pH 7.0, 2000 μM Sb (Potassium antimonyl tartrate trihydrate, Sigma-Aldrich, Saint Louis, MO, USA), 200 μM of MF (Miltefosine, Cayman Chem, Ann Arbor, MI, USA) or 1 μM AmB (Amphotericin B solution, Sigma-Aldrich, Saint Louis, MO, USA). Leishmanicidal values were determined in Leishmania promastigotes by monitoring the replication of parasites after 72 h of incubation at 25 °C in the presence of increasing concentrations of the different compounds by measuring A600 using a Cytation 5 machine (BioTek-Agilent, Santa Clara, CA 9, USA). EC50 values were calculated based on dose–response curves analyzed by non-linear regression with GraphPad Prism 10.0 software (GraphPad Software, La Jolla, CA, USA). An average of at least three independent biological replicates were performed for each determination.

Series [2] has as its system Leishmania infantum (MHOM/MA/67/ITMAP-263) resistant to 2 mM trivalent (and pentavalent) antimonials. Put plainly: Anti-leishmanial activity on promastigotes, antimony-resistant L. infantum. The series is classed as cell-based. The note with it: Leishmania infantum, 72 h, read-out: IC50 Ldi Sb-Res. The procedure:
as §1

The test system of another series is L. tarentolae lysate. The series is described as follows: Cell-free transcription-translation inhibition in L. tarentolae lysate. The format is biochemical. The note with it: inhibition of translation in active cell lysate, EGFP reporter, 120 min at 26 °C. The protocol:
(§2) Cytosolic ribosome susceptibility and selectivity were assessed through three different cell-free transcription-translation assays: (1) An extract of E. coli (S30, Promega, Madison, WI, USA), (2) in rabbit reticulocytes (Promega), and (3) in L. tarentolae lysate (Jena Bioscience, Jena, Germany). Three plasmids, compatible with each extract system, were used in this study: pBESTlucTM (Promega) for the prokaryotic translation assay, Luciferase T7 DNA (Promega) for the reticulocytes, and pLEXSY-invitro2-EGFP (Jena Bioscience) for Leishmania. Firefly luciferase was used as a reporter gene for the bacterial and reticulocyte systems, and EGFP for Leishmania. […] Assays were performed in white polystyrene 96-well flat-bottom plates (Nunc, Roskilde, Denmark) for luciferase and black polystyrene 384-well flat-bottom plates (Greiner, Kremsmunster, Austria) for EGFP. Incubation times were 60 min at 37 °C, 90 min at 30 °C, and 120 min at 26 °C for the bacterial, reticulocyte, and Leishmania systems, respectively. Reactions were stopped by quick snap cooling followed by a 5 min incubation on ice. Luciferase activity was measured for each well following the addition of 50 μL of Luciferase Assay reagent (Promega, Madison, WI, USA) with an automatic reagent injector (Tecan, Mannedorf, Switzerland) by recording the chemical-luminescence signal. EGFP fluorescence (λex = 488 nm; λem = 507 nm) was recorded on a Tecan Infinite R®F200 microplate reader (Tecan). Extracts lacking the circular DNA template were used as a negative control to calculate the fluorescence/chemical luminescence background. Reaction mixtures without compounds were used as positive controls and were regarded as 100% translation. Paromomycin was used as a control reagent in all assays. At least six different concentrations were used to plot each translation inhibition curve; experiments were performed in three independent repeats in duplicate. Half maximal inhibition concentrations (IC50) values were calculated from the concentration-response fitting curves using GraFit7.0.3 software.

Series [3] deals with rabbit reticulocytes (RR). Put plainly: Cell-free transcription-translation inhibition in rabbit reticulocytes. The format is biochemical. The note with it: inhibition of translation in rabbit reticulocyte lysate, luciferase reporter, 90 min at 30 °C. The procedure: as §2
Background: Reporter assays use an easily measured gene product as a stand-in for the process of interest.

Series [4] concerns Leishmania major Friedlin. The series is described as follows: Anti-leishmanial activity on promastigotes, L. major Friedlin. The series is classed as cell-based. The note with it: Leishmania major, 72 h, 25 °C, unit nM, read-out: IC50 LmF WT.
The subject of series [5] is L. major WT amastigotes in BMDM. Put plainly: Drug susceptibility of intracellular amastigotes in infected BMDM, L. major. The format is cell-based. The note with it: Leishmania major; infected BMDM macrophages, 48 h; read-out: EC50 against amastigotes of L. major. The procedure:
(§3) The effect of isopropyl ether 22a on the amastigote intracellular form of Leishmania was determined by the measurement of EC50 values in cells, as previously described. Briefly, 2.5 × 10^5 bone-marrow-derived macrophages (BMDMs) were plated into the wells of 12-well chamber slides (Ibidi) with complete DMEM medium. A culture of L. infantum or L. major WT promastigotes in stationary phase in a ratio of 1:5 BMDM to parasites was used to infect cells. Infection was carried out for 3 h at 37 °C in DMEM medium with 5% CO2 without drug. After 24 h, increasing concentrations of ether 22a were added to the medium containing the infected macrophages. After 48 h, the slides were fixed in methanol and stained with Diff-Quick solution to facilitate parasite visualization. The number of infecting amastigotes per 100 cells was determined by examining 300 macrophages per triplicate assay and normalized to the untreated control. EC50 values in the amastigote form were calculated based on dose–response curves that were analyzed by non-linear regression using the GraphPad Prism 9.0 software. An average of three independent biological replicates was used to perform the analyses.

The test system of series [6] is L. infantum WT amastigotes in BMDM. Put plainly: Drug susceptibility of intracellular amastigotes in infected BMDM, L. infantum. The note with it: Leishmania infantum; infected BMDM macrophages, 48 h; read-out: EC50 against amastigotes of L. infantum. The format is cell-based. The procedure: as §3
For another series, the system named is extract of E. coli (S30). The series is described as follows: Cell-free transcription-translation inhibition in E. coli S30 extract. The format is biochemical. The procedure: as §2
In series [7] the test system is Leishmania infantum (MHOM/MA/67/ITMAP-263) resistant to 1 µM amphotericin B. Put plainly: Anti-leishmanial activity on promastigotes, amphotericin B-resistant L. infantum. The series is classed as cell-based. The note with it: Leishmania infantum, 72 h, read-out: IC50 Ldi AmB-Res. The protocol: as §1
The subject of series [8] is Leishmania infantum (MHOM/MA/67/ITMAP-263) resistant to 200 µM miltefosine. Put plainly: Anti-leishmanial activity on promastigotes, miltefosine-resistant L. infantum. The format is cell-based. The note with it: Leishmania infantum, 72 h, read-out: IC50 Ldi MF-Res. The procedure: as §1

Results on 1 molecule are retold here after PMC10526209, “Systematic Exploration of Functional Group Relevance for Anti-Leishmanial Activity of Anisomycin” (Biomedicines, 2023).

Bounds are passed on as bounds.

A word on the IC50: it is the point on the concentration scale where inhibition reaches its midpoint. One may read the EC50 as the concentration at which the effect is half-maximal. For `CC(=O)O[C@@H]1[C@@H](O)CN[C@@H]1Cc1ccc(OC(C)C)cc1` [Analog 22a, (2R,3S,4S)-4-hydroxy-2-(4-iso-propoxybenzyl)-pyrrolidin-3-yl acetate], the “fold greater selectivity against the different amastigotes relative to host macrophage toxicity” value with host macrophage (BMDM) (MTT survival assay) is 5–10 fold. Besides, the “host cell toxicity (in words)” value with host macrophage (BMDM) (host BMDM cells) is on record as “without host cell toxicity”. For the same molecule, the IC50 was 122 ± 5.62 nM in series [1]; 129 ± 3.16 nM in [2]; 1.13 ± 0.12 µM in the series on L. tarentolae lysate; 0.9 ± 0.3 µM in [3]; 180 ± 4.69 nM in series [4]; > 200 µM in the series on extract of E. coli (S30) (inhibition of translation in active cell lysate, luciferase reporter, 60 min at 37 °C). Further, the IC50 was 119 ± 14.1 nM in [7] and 133 ± 7.8 nM in [8]. Also, the figures for the concentration giving a half-maximal response (EC50) in [5] and in series [6] were 53.7 nM and 33.3 nM, respectively. The “effect on E. coli (in words)” value with extract of E. coli (S30) (translation assay) is given as “no effect”.
